Source: the NIST ThermoML archive (doi:10.1016/j.fluid.2015.10.026)

Conditions: Brillouin light scattering

CCOC(C)(C)C [2-ethoxy-2-methylpropane]
Conditions | speed of sound [m/s]
433.15 K, 920 kPa, Liquid | 454.82
433.15 K, 2500 kPa, Liquid | 483.99
433.15 K, 4000 kPa, Liquid | 513.28
433.15 K, 5500 kPa, Liquid | 541.29
433.15 K, 7000 kPa, Liquid | 568
433.15 K, 8500 kPa, Liquid | 593.43
433.15 K, 10000 kPa, Liquid | 617.57
443.15 K, 1150 kPa, Liquid | 409.25
443.15 K, 2500 kPa, Liquid | 440.1
443.15 K, 4000 kPa, Liquid | 471.64
443.15 K, 5500 kPa, Liquid | 501.8
443.15 K, 7000 kPa, Liquid | 530.58
443.15 K, 8500 kPa, Liquid | 557.97
443.15 K, 10000 kPa, Liquid | 583.97
453.15 K, 1420 kPa, Gas | 157.35
453.15 K, 1420 kPa, Liquid | 361.97
453.15 K, 2500 kPa, Liquid | 395.94
453.15 K, 4000 kPa, Liquid | 429.85
453.15 K, 5500 kPa, Liquid | 462.29
453.15 K, 7000 kPa, Liquid | 493.25
453.15 K, 8500 kPa, Liquid | 522.72
453.15 K, 10000 kPa, Liquid | 550.71
463.15 K, 1750 kPa, Gas | 149.62
463.15 K, 1750 kPa, Liquid | 312.51
463.15 K, 2500 kPa, Liquid | 351.51
463.15 K, 4000 kPa, Liquid | 387.92
463.15 K, 5500 kPa, Liquid | 422.75
463.15 K, 7000 kPa, Liquid | 456
463.15 K, 10000 kPa, Liquid | 517.77
473.15 K, 2130 kPa, Gas | 140.63
473.15 K, 2130 kPa, Liquid | 260.24
473.15 K, 4000 kPa, Liquid | 345.84
473.15 K, 5500 kPa, Liquid | 383.18
473.15 K, 7000 kPa, Liquid | 418.85
473.15 K, 8500 kPa, Liquid | 452.84
473.15 K, 10000 kPa, Liquid | 485.16
478.15 K, 2340 kPa, Gas | 135.58
483.15 K, 2570 kPa, Gas | 130.09
483.15 K, 2570 kPa, Liquid | 204.36
483.15 K, 4000 kPa, Liquid | 303.61
483.15 K, 5500 kPa, Liquid | 343.59
488.15 K, 2820 kPa, Gas | 123.95
488.15 K, 2820 kPa, Liquid | 174.7
493.15 K, 3090 kPa, Gas | 116.68
493.15 K, 3090 kPa, Liquid | 143.64
493.15 K, 4000 kPa, Liquid | 261.23
493.15 K, 5500 kPa, Liquid | 303.97
511.02 K, 5000 kPa, Fluid (supercritical or subcritical phases) | 203.94
511.07 K, 6000 kPa, Fluid (supercritical or subcritical phases) | 251.63
511.12 K, 7000 kPa, Fluid (supercritical or subcritical phases) | 292.44
511.26 K, 4000 kPa, Fluid (supercritical or subcritical phases) | 109.41
520.05 K, 4000 kPa, Fluid (supercritical or subcritical phases) | 104.01
521 K, 5000 kPa, Fluid (supercritical or subcritical phases) | 155.15
521.16 K, 6000 kPa, Fluid (supercritical or subcritical phases) | 217.02
521.29 K, 7000 kPa, Fluid (supercritical or subcritical phases) | 264.62
529.5 K, 4000 kPa, Fluid (supercritical or subcritical phases) | 118.19
530.2 K, 5000 kPa, Fluid (supercritical or subcritical phases) | 132.08
530.73 K, 6000 kPa, Fluid (supercritical or subcritical phases) | 183.76
530.99 K, 7000 kPa, Fluid (supercritical or subcritical phases) | 234.87
540.45 K, 4000 kPa, Fluid (supercritical or subcritical phases) | 134.27
541.14 K, 5000 kPa, Fluid (supercritical or subcritical phases) | 128.78
541.48 K, 6000 kPa, Fluid (supercritical or subcritical phases) | 158.8
541.85 K, 7000 kPa, Fluid (supercritical or subcritical phases) | 208.25
550 K, 5000 kPa, Fluid (supercritical or subcritical phases) | 134.46
550.06 K, 4000 kPa, Fluid (supercritical or subcritical phases) | 147.6
550.44 K, 6000 kPa, Fluid (supercritical or subcritical phases) | 144.68
550.58 K, 7000 kPa, Fluid (supercritical or subcritical phases) | 188.75
561.04 K, 4000 kPa, Fluid (supercritical or subcritical phases) | 161.59
561.29 K, 5000 kPa, Fluid (supercritical or subcritical phases) | 145.73
561.65 K, 6000 kPa, Fluid (supercritical or subcritical phases) | 145.52
561.96 K, 7000 kPa, Fluid (supercritical or subcritical phases) | 176.1
571.2 K, 6000 kPa, Fluid (supercritical or subcritical phases) | 152.92
571.28 K, 7000 kPa, Fluid (supercritical or subcritical phases) | 169.79
571.33 K, 5000 kPa, Fluid (supercritical or subcritical phases) | 158.34
571.72 K, 4000 kPa, Fluid (supercritical or subcritical phases) | 172.96
579.57 K, 7000 kPa, Fluid (supercritical or subcritical phases) | 169.78
579.66 K, 6000 kPa, Fluid (supercritical or subcritical phases) | 163.68
579.91 K, 5000 kPa, Fluid (supercritical or subcritical phases) | 170.18
580.22 K, 4000 kPa, Fluid (supercritical or subcritical phases) | 182.55
590.12 K, 4000 kPa, Fluid (supercritical or subcritical phases) | 194.12
590.27 K, 7000 kPa, Fluid (supercritical or subcritical phases) | 175.32
590.38 K, 5000 kPa, Fluid (supercritical or subcritical phases) | 185.11
590.39 K, 6000 kPa, Fluid (supercritical or subcritical phases) | 178.89
601.53 K, 7000 kPa, Fluid (supercritical or subcritical phases) | 188.12
601.7 K, 6000 kPa, Fluid (supercritical or subcritical phases) | 193.21
602.16 K, 5000 kPa, Fluid (supercritical or subcritical phases) | 199.29
602.86 K, 4000 kPa, Fluid (supercritical or subcritical phases) | 207.43
611.06 K, 7000 kPa, Fluid (supercritical or subcritical phases) | 202.27
611.36 K, 6000 kPa, Fluid (supercritical or subcritical phases) | 206.2
611.87 K, 5000 kPa, Fluid (supercritical or subcritical phases) | 211.58
612.81 K, 4000 kPa, Fluid (supercritical or subcritical phases) | 217.85
622.53 K, 7000 kPa, Fluid (supercritical or subcritical phases) | 213.01
622.84 K, 6000 kPa, Fluid (supercritical or subcritical phases) | 217.4
623.38 K, 5000 kPa, Fluid (supercritical or subcritical phases) | 222.38
623.94 K, 4000 kPa, Fluid (supercritical or subcritical phases) | 226.9
631.83 K, 7000 kPa, Fluid (supercritical or subcritical phases) | 218.09
632.32 K, 6000 kPa, Fluid (supercritical or subcritical phases) | 223.19
633.27 K, 5000 kPa, Fluid (supercritical or subcritical phases) | 228.01
634.19 K, 4000 kPa, Fluid (supercritical or subcritical phases) | 232.56
643.79 K, 7000 kPa, Fluid (supercritical or subcritical phases) | 224.46
643.86 K, 6000 kPa, Fluid (supercritical or subcritical phases) | 228.16
644.48 K, 5000 kPa, Fluid (supercritical or subcritical phases) | 232.66
645.27 K, 4000 kPa, Fluid (supercritical or subcritical phases) | 236.85
653.83 K, 6000 kPa, Fluid (supercritical or subcritical phases) | 231.78
653.89 K, 7000 kPa, Fluid (supercritical or subcritical phases) | 228.08
654.31 K, 5000 kPa, Fluid (supercritical or subcritical phases) | 235.93
654.75 K, 4000 kPa, Fluid (supercritical or subcritical phases) | 239.86
665 K, 6000 kPa, Fluid (supercritical or subcritical phases) | 234.24
665.08 K, 4000 kPa, Fluid (supercritical or subcritical phases) | 242.03
665.1 K, 5000 kPa, Fluid (supercritical or subcritical phases) | 237.76
665.1 K, 7000 kPa, Fluid (supercritical or subcritical phases) | 230.39
